ChEMBL document CHEMBL1201862, “PubChem BioAssay data set” (2004)
Activity calls are given as the source filed them.

Key:
[1] = HEp-2 cell cytotoxicity, dose response, cytotoxicity control for RSV inhibitor project, HTS (AID 2410); format: functional; settings: human respiratory syncytial virus
P388/ADR = assay: cells; format: functional; settings: Mus musculus
SN12K1 = assay: cells; format: functional; settings: Homo sapiens
[2] = target: Induced myeloid leukemia cell differentiation protein Mcl-1 (Homo sapiens, UniProt Q07820); format: functional
Chain of Induced myeloid leukemia cell differentiation protein Mcl-1 (Q07820 whole entry): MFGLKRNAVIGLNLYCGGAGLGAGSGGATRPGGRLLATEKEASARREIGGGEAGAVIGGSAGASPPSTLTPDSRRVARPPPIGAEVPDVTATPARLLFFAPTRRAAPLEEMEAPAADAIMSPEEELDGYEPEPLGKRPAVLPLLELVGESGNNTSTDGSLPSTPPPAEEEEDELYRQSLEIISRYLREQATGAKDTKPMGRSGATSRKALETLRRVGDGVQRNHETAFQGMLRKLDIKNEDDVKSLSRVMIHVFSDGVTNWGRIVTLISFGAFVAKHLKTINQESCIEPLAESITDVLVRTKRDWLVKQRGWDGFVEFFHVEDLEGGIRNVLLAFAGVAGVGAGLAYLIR

[3] = growth suppression of PTEN-null colon cells, dose response, cell-based, HCT116 PTEN knockout (AID 1047); format: functional;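 note: HCT116 colon tumor cells with PTEN knocked out; cells exposed to compound for 60 hours before readout; potency for loss of cell viability measured by luminescence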
Cytochrome P450 2C19 = Cytochrome P450 2C19 (Homo sapiens, UniProt P33261); assay: Cytochrome panel assay with activity outcomes. Panel member name: p450-cyp2c19 Compounds with AC50 equal or less than 10 uM are considered active; format: functional; settings: read-out: AC50
Chain of Cytochrome P450 2C19 (P33261 whole entry): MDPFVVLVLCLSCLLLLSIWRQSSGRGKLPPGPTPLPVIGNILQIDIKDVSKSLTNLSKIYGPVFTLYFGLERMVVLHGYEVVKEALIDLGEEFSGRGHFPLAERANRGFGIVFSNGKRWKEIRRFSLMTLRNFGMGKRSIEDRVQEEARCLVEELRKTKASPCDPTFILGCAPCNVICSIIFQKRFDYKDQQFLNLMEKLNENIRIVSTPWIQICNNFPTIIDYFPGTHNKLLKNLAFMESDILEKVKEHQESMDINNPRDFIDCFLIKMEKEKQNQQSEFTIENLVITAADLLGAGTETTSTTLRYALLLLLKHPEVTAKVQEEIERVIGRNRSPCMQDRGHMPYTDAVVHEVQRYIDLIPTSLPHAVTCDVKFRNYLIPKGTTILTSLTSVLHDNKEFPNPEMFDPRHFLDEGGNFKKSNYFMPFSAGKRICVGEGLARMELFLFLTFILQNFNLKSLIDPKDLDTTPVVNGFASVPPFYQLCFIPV

Cytochrome P450 3A4 = Cytochrome P450 3A4 (Homo sapiens, UniProt P08684);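 note: CYP3A4 tested as one member of a cytochrome P450 panel screen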
Chain of Cytochrome P450 3A4 (P08684 whole entry): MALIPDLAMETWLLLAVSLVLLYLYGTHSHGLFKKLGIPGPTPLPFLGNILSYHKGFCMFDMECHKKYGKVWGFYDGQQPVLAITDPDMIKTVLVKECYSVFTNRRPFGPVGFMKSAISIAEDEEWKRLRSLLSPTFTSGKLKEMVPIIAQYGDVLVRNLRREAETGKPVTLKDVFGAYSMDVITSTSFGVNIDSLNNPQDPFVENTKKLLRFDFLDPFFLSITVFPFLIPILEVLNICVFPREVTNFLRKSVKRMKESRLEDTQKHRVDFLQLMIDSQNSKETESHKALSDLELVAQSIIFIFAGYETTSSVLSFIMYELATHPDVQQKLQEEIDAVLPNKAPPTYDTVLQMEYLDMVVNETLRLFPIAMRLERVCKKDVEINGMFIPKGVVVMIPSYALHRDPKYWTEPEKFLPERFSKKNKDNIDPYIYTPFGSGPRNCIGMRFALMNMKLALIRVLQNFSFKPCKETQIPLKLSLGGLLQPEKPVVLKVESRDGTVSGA

Cytochrome P450 1A2 = target: T1, Cytochrome P450 1A2 (Homo sapiens, UniProt P05177);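 note: PubChem cytochrome P450 panel assay, CYP1A2 panel member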
T1 sequence (P05177 whole entry): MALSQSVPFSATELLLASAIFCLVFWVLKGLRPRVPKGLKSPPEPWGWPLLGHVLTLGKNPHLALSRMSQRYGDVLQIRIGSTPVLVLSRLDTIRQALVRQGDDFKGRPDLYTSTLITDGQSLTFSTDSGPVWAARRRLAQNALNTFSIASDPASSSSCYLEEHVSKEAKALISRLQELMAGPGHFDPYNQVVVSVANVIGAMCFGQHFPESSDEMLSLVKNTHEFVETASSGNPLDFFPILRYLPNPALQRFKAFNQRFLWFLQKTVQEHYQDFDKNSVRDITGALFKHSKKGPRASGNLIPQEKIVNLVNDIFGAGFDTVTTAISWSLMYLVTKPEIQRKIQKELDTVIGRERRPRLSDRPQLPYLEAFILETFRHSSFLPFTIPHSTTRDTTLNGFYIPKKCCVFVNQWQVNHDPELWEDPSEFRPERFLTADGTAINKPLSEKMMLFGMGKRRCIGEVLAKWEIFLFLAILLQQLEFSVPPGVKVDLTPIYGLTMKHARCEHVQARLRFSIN

BJ [4] = assay: cells; format: functional, cell-based; settings: Homo sapiens
BJ [5] = assay: cytotoxicity toward BJ-TERT fibroblasts, dose response, cell-based, RAS-independent, luminescence (AID 1933); format: functional; settings: Homo sapiens
[6] = cytotoxicity toward DRD oncogenic fibroblasts, dose response, cell-based, non-viral oncogenic, luminescence (AID 1934); format: functional; settings: Homo sapiens
[7] = growth suppression of beta-catenin-knockout colon cells, dose response, cell-based, HCT116, human colon tumor (AID 1045); format: functional;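 note: HCT116 colon tumor cells with beta catenin knocked out; cells exposed to compound for 60 hours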
[8] = NIH-3T3 fibroblast cytotoxicity, dose response, cytotoxicity control, cell-based, fluorescence, Alamar Blue, secondary assay (AID 2327); format: functional;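 note: NIH-3T3 mouse fibroblasts cultured with fluconazole at 8 µg/mL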
[9] = C. albicans growth with fluconazole, confirmation, fluorescence, retest (AID 2467); format: functional, cell-based
[10] = target: T2, RNA-binding protein pos-1 (Caenorhabditis elegans, UniProt G5EF15); assay: inhibitors of POS-1/mex-3 RNA binding, dose response, biochemical, fluorescence polarization (AID 1964);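 note: purified POS-1 fused to maltose binding protein made in E. coli; potency of compounds blocking POS-1 binding to fluorescent RNA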
T2 sequence (G5EF15 whole entry): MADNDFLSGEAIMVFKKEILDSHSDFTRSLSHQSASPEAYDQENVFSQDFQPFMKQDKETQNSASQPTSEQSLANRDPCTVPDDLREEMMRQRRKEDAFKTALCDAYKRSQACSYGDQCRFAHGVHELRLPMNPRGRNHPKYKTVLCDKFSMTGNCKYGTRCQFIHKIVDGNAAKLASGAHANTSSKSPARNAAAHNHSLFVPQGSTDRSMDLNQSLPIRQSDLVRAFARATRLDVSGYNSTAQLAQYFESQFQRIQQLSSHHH

[11] = target: T3, Zinc finger protein mex-5 (Caenorhabditis elegans, UniProt Q9XUB2); assay: MEX-5/TCR-2 RNA interaction inhibitors, dose response, biochemical, C. elegans, fluorescence polarization (AID 1960)
T3 sequence (Q9XUB2 whole entry): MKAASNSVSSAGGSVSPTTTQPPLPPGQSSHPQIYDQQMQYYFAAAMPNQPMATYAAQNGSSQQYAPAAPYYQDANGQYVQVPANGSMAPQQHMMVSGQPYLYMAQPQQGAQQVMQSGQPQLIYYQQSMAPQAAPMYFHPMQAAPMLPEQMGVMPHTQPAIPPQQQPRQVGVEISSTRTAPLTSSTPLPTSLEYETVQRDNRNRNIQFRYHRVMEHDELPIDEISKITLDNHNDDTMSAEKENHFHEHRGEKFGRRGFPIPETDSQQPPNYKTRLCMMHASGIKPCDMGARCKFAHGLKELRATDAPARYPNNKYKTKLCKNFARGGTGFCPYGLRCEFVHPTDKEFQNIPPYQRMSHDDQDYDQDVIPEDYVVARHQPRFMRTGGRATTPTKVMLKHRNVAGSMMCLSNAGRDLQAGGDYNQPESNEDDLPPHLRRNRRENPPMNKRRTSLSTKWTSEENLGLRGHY

[12] = cytotoxicity toward NIH3T3 fibroblasts, dose response, counter-screen, cell-based, ATP luminescence, mouse fibroblasts (AID 2010); format: functional;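 note: cells exposed to compound for about 90 hours before reading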
[13] = inhibitors of intracellular T. cruzi replication, confirmation, NIH3T3 host cells, beta-gal luminescence (AID 2044); format: functional, cell-based;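 note: intracellular parasites grown in NIH/3T3 mouse fibroblasts as host cells; luminescent beta-galactosidase reporter signal from transgenic T. cruzi replicating inside host cells; inhibitors lower the luminescence signal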
Protein RecA = target: T4, Protein RecA (Mycobacterium tuberculosis, UniProt P9WHJ3); assay: Fluorescence Cell-Free Homogeneous Dose Retest to Identify Inhibitors of RecA-Intein Splicing Activity. [Related pubchem assays (depositor defined):AID2097, AID2223, AID489010, AID492950]; format: functional
T4 sequence (P9WHJ3 whole entry): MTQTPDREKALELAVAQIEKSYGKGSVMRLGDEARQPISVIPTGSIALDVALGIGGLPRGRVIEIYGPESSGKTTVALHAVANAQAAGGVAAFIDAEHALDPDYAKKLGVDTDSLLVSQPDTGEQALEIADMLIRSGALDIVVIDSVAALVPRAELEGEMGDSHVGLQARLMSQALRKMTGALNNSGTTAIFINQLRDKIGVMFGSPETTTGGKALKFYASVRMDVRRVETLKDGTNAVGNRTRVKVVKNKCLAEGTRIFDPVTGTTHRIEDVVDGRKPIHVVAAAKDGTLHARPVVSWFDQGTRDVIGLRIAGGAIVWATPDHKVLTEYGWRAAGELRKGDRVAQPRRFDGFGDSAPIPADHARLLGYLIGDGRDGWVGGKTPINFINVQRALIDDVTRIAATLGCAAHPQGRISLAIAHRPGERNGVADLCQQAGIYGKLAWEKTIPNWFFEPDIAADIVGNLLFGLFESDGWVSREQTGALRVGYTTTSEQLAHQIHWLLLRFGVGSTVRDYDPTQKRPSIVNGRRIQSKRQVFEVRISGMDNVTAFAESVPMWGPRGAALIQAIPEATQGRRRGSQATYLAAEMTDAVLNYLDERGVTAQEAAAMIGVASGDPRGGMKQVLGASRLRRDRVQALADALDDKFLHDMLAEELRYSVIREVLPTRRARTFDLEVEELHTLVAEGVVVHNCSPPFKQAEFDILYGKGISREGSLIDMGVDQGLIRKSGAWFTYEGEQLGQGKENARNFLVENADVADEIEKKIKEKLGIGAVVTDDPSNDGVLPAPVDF

[14] = target: T5, Replicative DNA helicase DnaB (Mycobacterium tuberculosis, UniProt P9WMR3); assay: DnaB intein splicing inhibitors, dose response, biochemical, cell-free fluorescence (AID 449749); format: functional
T5 sequence (P9WMR3 whole entry): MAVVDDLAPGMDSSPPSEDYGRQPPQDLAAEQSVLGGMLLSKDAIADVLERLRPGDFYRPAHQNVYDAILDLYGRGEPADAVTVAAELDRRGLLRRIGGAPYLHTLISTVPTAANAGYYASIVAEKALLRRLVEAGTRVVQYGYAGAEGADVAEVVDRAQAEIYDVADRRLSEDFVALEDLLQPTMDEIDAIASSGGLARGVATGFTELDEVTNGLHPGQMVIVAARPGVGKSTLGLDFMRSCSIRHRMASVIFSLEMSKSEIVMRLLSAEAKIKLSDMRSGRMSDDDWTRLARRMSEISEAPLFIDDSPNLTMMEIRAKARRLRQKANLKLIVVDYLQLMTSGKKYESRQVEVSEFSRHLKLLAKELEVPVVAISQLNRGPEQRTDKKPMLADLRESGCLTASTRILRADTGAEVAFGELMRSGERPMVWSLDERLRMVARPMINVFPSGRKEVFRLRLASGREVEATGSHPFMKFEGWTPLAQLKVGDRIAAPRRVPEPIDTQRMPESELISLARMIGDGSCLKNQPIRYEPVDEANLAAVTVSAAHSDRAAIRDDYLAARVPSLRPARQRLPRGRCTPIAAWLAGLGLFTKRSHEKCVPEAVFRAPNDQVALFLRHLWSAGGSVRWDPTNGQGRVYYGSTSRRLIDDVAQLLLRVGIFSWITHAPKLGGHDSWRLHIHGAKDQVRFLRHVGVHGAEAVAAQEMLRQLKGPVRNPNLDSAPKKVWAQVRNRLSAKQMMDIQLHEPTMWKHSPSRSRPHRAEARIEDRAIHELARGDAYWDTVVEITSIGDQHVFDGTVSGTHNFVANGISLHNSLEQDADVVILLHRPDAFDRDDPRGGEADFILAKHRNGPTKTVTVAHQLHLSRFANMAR

O=[N+]([O-])c1ccc(N=Nc2c(O)[nH]c3ccc(F)cc23)cc1
CC50 [1]: 26.1 µM (active)

COc1cc(/C=C(\C#N)C(N)=O)cc(Br)c1O
GI50 (P388/ADR): > 100 µM (inactive)
GI50 (SN12K1): 95.3 µM (inactive)

Cc1cc(C(=O)N/N=C/c2ccc(O)c([N+](=O)[O-])c2)c(C)n1-c1ccc(F)cc1
IC50 [2]: 3.74 µM (active)

O=C(COC(=O)c1c2c(nc3ccccc13)CCCC2)Nc1ccc2c(c1)OCO2
EC50 [3]: 44.5 µM (active)

CC(C)(C)c1ccc(C2CC2C(=O)N/N=C\c2cc3ccccc3nc2Cl)cc1 (stereo not given)
AC50 (Cytochrome P450 2C19): 11.2 µM (inconclusive)
AC50 (Cytochrome P450 3A4): 15.8 µM (inconclusive)
CC50 [1]: 20.1 µM (active)
AC50 (Cytochrome P450 1A2): 28.2 µM (inconclusive)

CC(=O)Nc1sc(N/N=C\c2ccc(O)cc2)nc1-c1cccs1
IC50 [2]: 2.4 µM (active)

COC(=O)c1ccc(Cn2cnc3c(sc4nc(N5CCOCC5)c5c(c43)CCCC5)c2=O)o1
CC50 [1]: > 50 µM (active)

CCc1ccc(/C=C2/SC(=S)N(CCC(=O)NCCCN3CCOCC3)C2=O)cc1
EC50 (BJ [4]): 14.5 µM (active)
EC50 (BJ [5]): 1.32 µM (active)
EC50 [6]: > 38 µM (not active)

Cc1cccc(N2CCN(C(=O)c3cn(C)c(=O)c4c3c3ccccc3n4C)CC2)c1C
EC50 [3]: 19.1 µM (active)
EC50 [7]: 18.6 µM (active)

CCC(Oc1ccccc1)C(=O)Nc1ncc([N+](=O)[O-])s1 (stereo not given)
EC50 [8]: > 160 µM (inactive)
EC50 [9]: 1.5 µM (active)

COc1cc(NC(=S)N2CCN(S(=O)(=O)c3ccccc3)CC2)cc(OC)c1
EC50 [8]: > 160 µM (inconclusive)
EC50 [9]: > 38 µM (not active)

Cc1ccc(S(=O)(=O)c2nc(-c3ccc(F)cc3)oc2SCC(=O)NCC2CCCO2)cc1 (stereo not given)
EC50 [3]: 83.1 µM (active)
EC50 [7]: 35.3 µM (active)

O=C1NC2(CCC3(CC2)OCCO3)NN1c1ccccc1
EC50 [8]: > 160 µM (inconclusive)
EC50 [9]: > 38 µM (not active)

Cc1ccc(S(=O)(=O)N2CCC(Oc3cccc(C(F)(F)F)c3)CC2)cc1
CC50 [1]: 16.5 µM (active)

Cc1ccc(-c2nnn(CC(=O)N(Cc3ccco3)C(C(=O)NC(C)(C)C)c3ccncc3)n2)o1 (stereo not given)
EC50 [8]: > 150 µM (inactive)
EC50 [9]: > 38 µM (not active)

CC(=O)Oc1ccc(NC(=O)CSc2ccccc2)cc1
IC50 [2]: < 0.4 µM (not active)

COc1ccc(/C=C/C(=O)Oc2ccc(/C=N/NC(=O)c3ccccc3)cc2)cc1OC
EC50 [3]: 27.7 µM (active)
EC50 [7]: 25.8 µM (active)

N#Cc1c(NC(=O)CSC2=NCCS2)sc2c1CCCC2
CC50 [1]: 22.5 µM (active)

COc1cc(C2C(C#N)=C(N)OC3=C2C(=O)CCC3)c([N+](=O)[O-])cc1OC (stereo not given)
EC50 [10]: 15.8 µM (active)
EC50 [11]: 13.8 µM (active)
IC50 [2]: 3.9 µM (active)
AC50 (Cytochrome P450 1A2): 31.6 µM (inconclusive)

O=C(NCc1ccc(F)cc1)c1ccc(CS(=O)(=O)Cc2ccccc2F)o1
EC50 [8]: > 150 µM (inactive)
EC50 [9]: 6.51 µM (active)

Cc1nc2sc(C(c3cccc(F)c3)N3CCCC(C)C3)c(O)n2n1 (stereo not given)
EC50 [8]: > 150 µM (inactive)
EC50 [9]: 1.82 µM (active)

O=C(NC1CCCCC1)C(c1ccncc1)N(Cc1ccccc1)C(=O)c1ccc(-c2ccccc2)[nH]1 (stereo not given)
EC50 [12]: > 60 µM (not active)
CC50 [1]: 7.92 µM (active)
EC50 [13]: 0.413 µM (active)

O=C(CSc1nc2ccccc2nc1SCC(=O)N1CCOCC1)N1CCOCC1
EC50 (Protein RecA): > 380 µM (inactive)
AC50 [14]: 194 µM (active)

COCCOC(=O)C1=C(C)N(Cc2ccccc2)C(=O)NC1c1ccc(OC)cc1 (stereo not given)
CC50 [1]: 23.2 µM (active)
